# From patent publication US6562819B2, “Compounds for inhibition of ceramide-mediated signal transduction” (The Regents of the University of California, priority 1994, dated 2003)
# pIC50: −log10 of the molar value. Where two headings read alike, the source gives them in different places.
# Assays:
# TNF-α production [1] = test: ELISA for TNF-α production by LPS stimulated human monocytes; format: cell-based; settings: Concentration of compound which inhibited the product of TNFα by 50% of control, read-out: TNFαIC50
# Description: Peripheral blood mononuclear cells were isolated from normal human blood on Hypaque-Ficoll density gradients. A portion of the isolated cells were further purified by adherence to gelatin coated flasks.
# 100 μl aliquots of monocytes were placed onto 96 well microtiter plates at a density of 5×10^5 cells/ml in RPMI-1640 medium containing 10% fetal bovine serum. After incubation for 24 hrs., various concentrations of the test compounds (FIG. 5) were added to the plated cells in a volume of 100 μl and incubated for 1 hr. After incubation, 1 μg/ml of LPS was added to each well.
# 18 hrs. after exposure of the plated cells to LPS, 100 μl of medium was collected from each well and assayed (by ELISA) for release of TNF-α, using recombinant human TNF as a standard. The sensitivity of the assay ranged from 10-100 pg/ml.
# TNF-α production [2] = test: LPS induced TNF-α production by human macrophages; format: cell-based; settings: 0.1-1000 μM; result in words
# Description: Human macrophages were cultured in 96 well microtiter plates and incubated with LPS. μAliquots of the stimulated cells were then incubated with, respectively, 0.1, 1, 10, 100 or 1000 μM of 1I-49, compound 37 and a commercially available isoquinoline (6,7-dimethoxy-1(2H)-isoquinoline from μAldrich Chemical; labelled S52-626-6 in FIG. 10) which, like the compounds of the invention, has an oxygen ortho to a ring nitrogen but, unlike the compounds of the invention, lacks a side chain substituent as described above (1L-49 is representative of the isoquinolone compounds of the invention having the side chain substituents described elsewhere above). The inhibitory efficacy of each compound was measured as a function of TNF-α reduction in μg/ml.
pIC50 (TNF-α production [1]; Monocyte),melting point,pIC50 (TNF-α production [1]),Structure (SMILES),inhibition of LPS induced TNF-α production (TNF-α production [2])
4.30,> 295 °C (dec.),–,"CCCCCCn1c(=O)c2[nH]c(=O)[nH]c2n(C)c1=O [Compound 24, 1-n-Hexyl-3-methyluric Acid]",–
< 3.70,> 320 °C,–,"Cn1c(=O)[nH]c(=O)c2[nH]c(S)nc21 [Compound 25, 3-Methyl-8-thiouric Acid]",–
–,–,5.30,"CCCn1c(=O)n(CCCC(=O)OCC)c(=O)c2c1ncn2C [Compound 31, ethyl 4-(2,3,6,7-tetrahydro-2,6-dioxo-7-methyl-3-n-propyl-1H-purin-1-yl)butonoic acid]",–
4.26,–,–,"CCOC(=O)CCCn1c(=O)c2ccccc2n(C)c1=O [Compound 52, Ethyl 1-Methyl-1,4-dihydro-2,4-dioxo-3(2H)-quinazolinebutanoate]",–
–,–,–,"COc1cc2cc[nH]c(=O)c2cc1OC [S52, 626-6, 6,7-dimethoxy-1(2H)-isoquinoline]",mild inhibitory activity
